# Source: the supplement of paper PMC10307832
# Tests used:
# Assay in all cases: relative viability (nuclei count vs DMSO), 5 days (fraction); higher = more cells survive
# SK-LU-1 = tested on: SK-LU-1
# Method in brief: (§1)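 The day after seeding in 1536-well plates, lung cancer cell lines were treated by pin tool with a single drug, or with a fixed anchor-drug dose together with five library-drug doses (not always all listed) in √10 steps. After 5 days, a combined fix-and-stain solution (final 0.05% Triton X-100, 1% formaldehyde, 1 ug/ml Hoechst) was added. Nuclei counted on 4× images gave relative viability as treated counts over vehicle counts, reported as the median of duplicate plates.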
# NCI-H2126 = tested on: NCI-H2126
# Method in brief: as §1
# NCI-H1915 = tested on: NCI-H1915
# Method in brief: as §1
# SW 1573 = tested on: SW 1573
# Method in brief: as §1
# NCI-H647 = tested on: NCI-H647
# Method in brief: as §1
# NCI-H2347 = tested on: NCI-H2347
# Method in brief: as §1
# NCI-H322M = tested on: NCI-H322M
# Method in brief: as §1
# NCI-H2023 = tested on: NCI-H2023
# Method in brief: as §1
# LCLC-97TM1 = tested on: LCLC-97TM1
# Method in brief: as §1
# H3255 = tested on: H3255
# Method in brief: as §1
# NCI-H2009 = tested on: NCI-H2009
# Method in brief: as §1
# EPLC-272H = tested on: EPLC-272H
# Method in brief: as §1
# NCI-H1993 = tested on: NCI-H1993
# Method in brief: as §1
# PC-14 = tested on: PC-14
# Method in brief: as §1
# NCI-H661 = tested on: NCI-H661
# Method in brief: as §1
# HOP-62 = tested on: HOP-62
# Method in brief: as §1
# LXF-289 = tested on: LXF-289
# Method in brief: as §1
# NCI-H727 = tested on: NCI-H727
# Method in brief: as §1
# NCI-H1734 = tested on: NCI-H1734
# Method in brief: as §1
# EMC-BAC-2 = tested on: EMC-BAC-2
# Method in brief: as §1
# NCI-H2085 = tested on: NCI-H2085
# Method in brief: as §1
smiles,measurement,setting,value
CC(=O)O[C@@]12CO[C@@H]1C[C@H](O)[C@@]1(C)C(=O)[C@H](O)C3=C(C)[C@@H](OC(=O)[C@H](O)[C@@H](NC(=O)OC(C)(C)C)c4ccccc4)C[C@@](O)([C@@H](OC(=O)c4ccccc4)[C@H]21)C3(C)C [Docetaxel] + Cc1cc(Nc2cc(N3CCN(C)CC3)nc(Sc3ccc(NC(=O)C4CC4)cc3)n2)n[nH]1 [Tozasertib] (partner 0.1 µM),relative viability,SK-LU-1; first compound 0.0002 µM,0.297
same,relative viability,SK-LU-1; first compound 0.000632 µM,0.302
same,relative viability,SK-LU-1; first compound 0.002 µM,0.308
same,relative viability,SK-LU-1; first compound 0.006325 µM,0.252
same,relative viability,SK-LU-1; first compound 0.02 µM,0.217
same,relative viability,NCI-H2126; first compound 0.0002 µM,0.785
same,relative viability,NCI-H2126; first compound 0.000632 µM,0.45
same,relative viability,NCI-H2126; first compound 0.002 µM,0.359
same,relative viability,NCI-H2126; first compound 0.006325 µM,0.354
same,relative viability,NCI-H2126; first compound 0.02 µM,0.237
same,relative viability,NCI-H1915; first compound 0.0002 µM,0.426
same,relative viability,NCI-H1915; first compound 0.000632 µM,0.322
same,relative viability,NCI-H1915; first compound 0.002 µM,0.247
same,relative viability,NCI-H1915; first compound 0.006325 µM,0.201
same,relative viability,NCI-H1915; first compound 0.02 µM,0.142
same,relative viability,SW 1573; first compound 0.0002 µM,0.24
same,relative viability,SW 1573; first compound 0.000632 µM,0.189
same,relative viability,SW 1573; first compound 0.002 µM,0.256
same,relative viability,SW 1573; first compound 0.02 µM,0.199
same,relative viability,NCI-H647; first compound 0.0002 µM,0.258
same,relative viability,NCI-H647; first compound 0.000632 µM,0.339
same,relative viability,NCI-H647; first compound 0.002 µM,0.148
same,relative viability,NCI-H647; first compound 0.006325 µM,0.132
same,relative viability,NCI-H647; first compound 0.02 µM,0.103
same,relative viability,NCI-H2347; first compound 0.0002 µM,0.511
same,relative viability,NCI-H2347; first compound 0.000632 µM,0.594
same,relative viability,NCI-H2347; first compound 0.002 µM,0.441
same,relative viability,NCI-H2347; first compound 0.006325 µM,0.293
same,relative viability,NCI-H2347; first compound 0.02 µM,0.268
same,relative viability,NCI-H322M; first compound 0.0002 µM,0.479
same,relative viability,NCI-H322M; first compound 0.000632 µM,0.477
same,relative viability,NCI-H322M; first compound 0.002 µM,0.49
same,relative viability,NCI-H322M; first compound 0.006325 µM,0.485
same,relative viability,NCI-H322M; first compound 0.02 µM,0.476
same,relative viability,NCI-H2023; first compound 0.0002 µM,0.317
same,relative viability,NCI-H2023; first compound 0.000632 µM,0.288
same,relative viability,NCI-H2023; first compound 0.002 µM,0.11
same,relative viability,NCI-H2023; first compound 0.006325 µM,0.158
same,relative viability,NCI-H2023; first compound 0.02 µM,0.0697
same,relative viability,LCLC-97TM1; first compound 0.000632 µM,0.209
same,relative viability,LCLC-97TM1; first compound 0.002 µM,0.191
same,relative viability,LCLC-97TM1; first compound 0.006325 µM,0.122
same,relative viability,LCLC-97TM1; first compound 0.02 µM,0.13
same,relative viability,H3255; first compound 0.0002 µM,0.83
same,relative viability,H3255; first compound 0.000632 µM,0.507
same,relative viability,H3255; first compound 0.002 µM,0.241
same,relative viability,H3255; first compound 0.006325 µM,0.264
same,relative viability,H3255; first compound 0.02 µM,0.236
same,relative viability,NCI-H2009; first compound 0.0002 µM,0.626
same,relative viability,NCI-H2009; first compound 0.000632 µM,0.747
same,relative viability,NCI-H2009; first compound 0.002 µM,0.682
same,relative viability,NCI-H2009; first compound 0.006325 µM,0.553
same,relative viability,NCI-H2009; first compound 0.02 µM,0.302
same,relative viability,EPLC-272H; first compound 0.0002 µM,0.219
same,relative viability,EPLC-272H; first compound 0.000632 µM,0.129
same,relative viability,EPLC-272H; first compound 0.002 µM,0.132
same,relative viability,EPLC-272H; first compound 0.006325 µM,0.0975
same,relative viability,EPLC-272H; first compound 0.02 µM,0.104
same,relative viability,NCI-H1993; first compound 0.0002 µM,0.644
same,relative viability,NCI-H1993; first compound 0.000632 µM,0.592
same,relative viability,NCI-H1993; first compound 0.002 µM,0.604
same,relative viability,NCI-H1993; first compound 0.006325 µM,0.515
same,relative viability,NCI-H1993; first compound 0.02 µM,0.586
same,relative viability,PC-14; first compound 0.0002 µM,0.534
same,relative viability,PC-14; first compound 0.000632 µM,0.489
same,relative viability,PC-14; first compound 0.002 µM,0.0877
same,relative viability,PC-14; first compound 0.006325 µM,0.0613
same,relative viability,PC-14; first compound 0.02 µM,0.0312
same,relative viability,NCI-H661; first compound 0.0002 µM,0.367
same,relative viability,NCI-H661; first compound 0.000632 µM,0.387
same,relative viability,NCI-H661; first compound 0.002 µM,0.432
same,relative viability,NCI-H661; first compound 0.006325 µM,0.352
same,relative viability,NCI-H661; first compound 0.02 µM,0.4
same,relative viability,HOP-62; first compound 0.0002 µM,0.353
same,relative viability,HOP-62; first compound 0.000632 µM,0.401
same,relative viability,HOP-62; first compound 0.002 µM,0.281
same,relative viability,HOP-62; first compound 0.006325 µM,0.277
same,relative viability,LXF-289; first compound 0.0002 µM,0.172
same,relative viability,LXF-289; first compound 0.000632 µM,0.165
same,relative viability,LXF-289; first compound 0.006325 µM,0.125
same,relative viability,LXF-289; first compound 0.02 µM,0.114
same,relative viability,NCI-H727; first compound 0.0002 µM,0.781
same,relative viability,NCI-H727; first compound 0.000632 µM,0.614
same,relative viability,NCI-H727; first compound 0.002 µM,0.611
same,relative viability,NCI-H727; first compound 0.006325 µM,0.518
same,relative viability,NCI-H727; first compound 0.02 µM,0.398
same,relative viability,NCI-H1734; first compound 0.0002 µM,0.308
same,relative viability,NCI-H1734; first compound 0.000632 µM,0.345
same,relative viability,NCI-H1734; first compound 0.002 µM,0.302
same,relative viability,NCI-H1734; first compound 0.006325 µM,0.341
same,relative viability,NCI-H1734; first compound 0.02 µM,0.292
same,relative viability,EMC-BAC-2; first compound 0.0002 µM,0.296
same,relative viability,EMC-BAC-2; first compound 0.000632 µM,0.321
same,relative viability,EMC-BAC-2; first compound 0.006325 µM,0.26
same,relative viability,EMC-BAC-2; first compound 0.02 µM,0.185
same,relative viability,NCI-H2085; first compound 0.0002 µM,0.743
same,relative viability,NCI-H2085; first compound 0.000632 µM,0.779
same,relative viability,NCI-H2085; first compound 0.002 µM,0.664
same,relative viability,NCI-H2085; first compound 0.006325 µM,0.481
same,relative viability,NCI-H2085; first compound 0.02 µM,0.322
